Test system: MC38 tumor model
Assay: MC38 tumor model (fibrosis)
Format: in vivo
Settings: no dose or method printed

CCCn1c(=O)c2c(nc(-c3cnn(Cc4cccc(C(F)(F)F)c4)c3)n2C(C)=O)n(CC)c1=O [Compound 1, 7-acetyl-3-ethyl-1-propyl-8-(1-(3-(trifluoromethyl)benzyl)-1H-pyrazol-4-yl)-3,7-dihydro-1H-purine-2,6-dione]
fibrosis in a MC38 tumor model: reduces fibrosis
